Data taken from US9409906B2, “Pyrimido[4,5-B]indole derivatives and use thereof in the expansion of hematopoietic stem cells” (UNIVERSITÉ DE MONTRÉAL, priority 2012, dated 2016).

Key:
Type in all cases: cell-based, human
[1] = tested on: Mobilized peripheral blood CD34(+) cells; test: Reversibility (wash-out) of compound effect on CD34+CD45RA− percentage (FIG. 2); conditions: for reversibility of effect on CD34+CD45RA− percentage after wash-out: 7 days with compound, washed, 8 additional days
Procedure: FIG. 2: Effect of compound 1 is reversible. Mobilized peripheral blood CD34(+) cells cultured for 7 days with compound 1 (shown in green) or vehicle (DMSO, shown in blue) were washed and re-plated in fresh media with or without Compound addition (solid vs dashed line respectively). Cells were cultured for 8 additional days and the percentage of CD34+CD45RA− was monitored.
This effect is best shown in FIG. 2 where CD34+ mobilized peripheral blood cells are cultured in the presence of Compound 1 for up to 7 days, at which time the Compound 1 is removed by washing the cells.

CD34+ mPB cells = test: Colony-forming units in culture (CFU-C) assay in methylcellulose; conditions: 1000 CD34+ mPB cells treated for 10 days
Procedure: The ex vivo functionality of expanded cells was tested using the conventional colony-forming units in culture (CFU-C) assay. Untreated cells or cells incubated with DMSO, positive control or a compound of the invention were plated in methylcellulose medium in conventional conditions. As an example, Compound 1 (Table 1, Example 1) expands the number of multipotent hematopoietic progenitors.

[2] = tested on: CD34+ cells from mobilized PB; test: Long term 10-day ex vivo culture of CD34+ cells from mobilized PB
Procedure: The following biological assays were used to assess the effect of the compounds of the invention on hematopoietic stem cell expansion. Culture medium: The culture medium used consisted of serum-free medium supplemented with the following recombinant cytokines: interleukin-6, thrombopoietin, Flt-3 ligand, and stem cell factor, each at a final concentration of 100 ng/ml, in the presence of vehicle (DMSO), positive control (SR1), or compound of the invention or a combination of compounds. Cell Culture: CD34+ cell purity of initial harvests was higher than 90%, as determined by flow cytometry. The CD34+CD45RA− subpopulation reached purity levels higher than 70%. Cells were plated at 40,000 cells/ml and incubated for 7 to 12-days at 37° C. in 5% CO2. For long term cultures, 200,000 CD34+ cells/ml from mobilized PB were plated with serum free media supplemented with interleukin-6, thrombopoietin, Flt3 ligand, and stem cell factor, each at a final concentration of 100 ng/ml, in the presence of vehicle (DMSO), positive control, or a compound of the invention at 500 nM. After a 10-day ex vivo culture Compound 1 (Table 1) promoted more than 7-fold expansion of MNCs, more than 5-fold increase in CD34+ cells over input values (day 0), and almost 4-fold increase over the values determined for vehicle. After 10 days of ex vivo culture, Compound 1-treated cells retained a high level of CD34 expression (65.8±5.5%) compared to cells cultured with vehicle (DMSO) (22.8±0.9%). Moreover, only Compound 1-treated cells retained the highest expression of CD34+CD45RA− population (24.8±0.9%) compared to that of vehicle (4.7±0.4%). The numbers of CD34+CD45RA− cultured with Compound 1 increased by almost 3-fold compared to that of vehicle and 7-fold more than that of input. Finally, the compounds of the invention were assayed in a dose-response format (concentrations ranging from 1 nM to 5000 nM) to determine the effective concentration that produced a 50% increase in the number of CD34+CD45RA− cells compared to vehicle condition.

With `COC(=O)c1ccc2c(c1)[nH]c1ncnc(NCCCN3CCCCC3)c12` [Compound 1, Methyl 4-((3-(piperidin-1-yl)propyl)amino)-9H-pyrimido[4,5-b]indole-7-carboxylate] as the molecule, how does the “reversibility of effect on CD34+CD45RA− percentage after wash-out” value [1] read?
The value was “rapidly reversible”.

And the “reversibility of effect on CD34+CD45RA− percentage after wash-out” value ([1]; listed as compound 1)?
Its value is “reversible”.

What about the “compound-free exposure until cells acquired differentiation markers as in control cultures” value ([1]; after wash-out at day 7) of the same molecule?
The value was no more than 2 days.

And the “increase in multilineage GEMM colonies compared to control cells” value (CD34+ mPB cells)?
The value was 10 fold.

And the “increase in multilineage GEMM colonies over input cells” value (CD34+ mPB cells)?
The value was 5 fold.

What about the “expansion of MNCs” value ([2]; 10-day ex vivo culture, 500 nM) of the same molecule?
Its value is “more than 7 fold”.

What about the “increase in CD34+ cells over input values (day 0)” value ([2]; 10-day ex vivo culture, 500 nM) of the same molecule?
Its value is “more than 5 fold”.

And the “increase in CD34+ cells over the values determined for vehicle” value ([2]; 10-day ex vivo culture, 500 nM)?
The value was roughly 4 fold.

And the “numbers of CD34+CD45RA− compared to input” value ([2]; 10-day ex vivo culture, 500 nM)?
The value was 7 fold.

And the “numbers of CD34+CD45RA− compared to vehicle” value ([2]; 10-day ex vivo culture, 500 nM)?
The value was roughly 3 fold.

And the “expression of CD34+CD45RA− population” value ([2]; after 10 days of ex vivo culture, vehicle 4.7±0.4%)?
Its value is 24.8±0.9%.

What about the “level of CD34 expression” value ([2]; after 10 days of ex vivo culture, vehicle 22.8±0.9%) of the same molecule?
Its value is 65.8±5.5%.
